Source: patent US10035800B2 (AbbVie Inc., priority 2013, dated 2018)

Key:
[1] = target: T1, BRD4 (BDI_K57-E168) (Homo sapiens, UniProt O60885); assay: TR-FRET bromodomain binding assay, first bromodomain of BRD4; details: TR-FRET assay protocol G (compound 0.92 μM-15 pM); 100 nM probe
T1 construct: BD1: amino acids K57-E168; made in house
Summary of the method: (§1)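 His-tagged BRD4 bromodomain (8 nM) was incubated with Eu-anti-His antibody (1 nM) and an Alexa647-labelled BET-inhibitor probe (100 nM for BDI, 30 nM for BDII) in pH 6.0 phosphate buffer with 2% DMSO for 1 h at room temperature. TR-FRET ratio was read, IC50 fitted by 4-parameter logistic, then converted to Ki.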

[2] = target: T2, BRD4 (BDII_E352-M457) (Homo sapiens, UniProt O60885); assay: TR-FRET bromodomain binding assay, second bromodomain of BRD4; details: TR-FRET assay protocol G (compound 0.92 μM-15 pM); 30 nM probe
T2 construct: protocol; made in house
Summary of the method: as §1

[3] = system: breast cancer cell line MX-1; assay: MX-1 cell line proliferation assay; format: cell-based; details: MX-1 cells, 3-day proliferation assay, Cell Titer Glo; read-out: Cellular proliferation: EC50
Summary of the method: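 EC50 comes from sigmoidal fits of Cell Titer Glo luminescence relative to DMSO controls, with assay MSR 2.1. Ten-point 3-fold dilutions (top 3 or 1 μM final) were added to MX-1 breast cancer cells after overnight adhesion. Cells were at 5000/well and proliferation ran 3 days.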

SMILES | Ki [1] [nM] | Ki [2] [nM] | EC50 [3] [nM]
COCC(C)N1Cc2c[nH]c3c(=O)n(C)cc(c23)-c2cc(CS(C)(=O)=O)ccc21 (stereo not drawn) [Example 185, 4-(1-methoxypropan-2-yl)-10-methyl-7-((methylsulfonyl)methyl)-3,4-dihydro-1H-1,4,10-triazadibenzo[cd,f]azulen-11(10H)-one] | 4.19 | 10.2 | 28.3
Cn1cc2c3c(c[nH]c3c1=O)C(CO)N(c1ccc(F)cc1F)c1ccc(CS(C)(=O)=O)cc1-2 (stereo not drawn) [Example 200, 4-(2,4-difluorophenyl)-3-(hydroxymethyl)-10-methyl-7-((methylsulfonyl)methyl)-3,4-dihydro-1H-1,4,10-triazadibenzo[cd,f]azulen-11(10H)-one] | 8.18 | 2.05 | 34.2
Cn1cc2c3c(c[nH]c3c1=O)C(CN1C(=O)c3ccccc3C1=O)N(c1ccc(F)cc1F)c1ccc(CS(C)(=O)=O)cc1-2 [Example 204, (S)-2-((4-(2,4-difluorophenyl)-10-methyl-7-((methylsulfonyl)methyl)-11-oxo-3,4,10,11-tetrahydro-1H-1,4,10-triazadibenzo[cd,f]azulen-3-yl)methyl)isoindoline-1,3-dione] | 46.1 | 1.22 | > 1000
Cn1cc2c3c(c[nH]c3c1=O)C(CN1C(=O)c3ccccc3C1=O)N(c1ccc(F)cc1F)c1ccc(CS(C)(=O)=O)cc1-2 [Example 205, (R)-2-((4-(2,4-difluorophenyl)-10-methyl-7-((methylsulfonyl)methyl)-11-oxo-3,4,10,11-tetrahydro-1H-1,4,10-triazadibenzo[cd,f]azulen-3-yl)methyl)isoindoline-1,3-dione] | 200 | 29.1 | > 1000
CCOC(=O)c1[nH]c2c(=O)n(C)cc3c2c1CN(c1ccc(F)cc1F)c1ccc(CS(C)(=O)=O)cc1-3 [Example 208, ethyl 4-(2,4-difluorophenyl)-10-methyl-7-((methylsulfonyl)methyl)-11-oxo-3,4,10,11-tetrahydro-1H-1,4,10-triazadibenzo[cd,f]azulene-2-carboxylate] | 3.41 | 1.15 | 10.7

Stronger by Ki [1], values ahead:

Ki [1] [nM] | Ki [2] [nM] | EC50 [3] [nM] | SMILES
1.85 | 12.4 | 31.7 | Cn1cc2c3c(c(CN4CCOCC4)[nH]c3c1=O)CN(c1ccc(Cl)cc1)c1ccc(CS(C)(=O)=O)cc1-2 [Example 193, 4-(4-chlorophenyl)-10-methyl-7-((methylsulfonyl)methyl)-2-(morpholinomethyl)-3,4-dihydro-1H-1,4,10-triazadibenzo[cd,f]azulen-11(10H)-one]
1.52 | 2.65 | 2.66 | Cn1cc2c3c(c[nH]c3c1=O)CN(C1CCC(NC(=O)OC(C)(C)C)CC1)c1ccc(CS(C)(=O)=O)cc1-2 (stereo not drawn) [Example 197, tert-butyl ((trans)-4-(10-methyl-7-((methylsulfonyl)methyl)-11-oxo-10,11-dihydro-1H-1,4,10-triazadibenzo[cd,f]azulen-4(3H)-yl)cyclohexyl)carbamate]
1.2 | 0.86 | 6.54 | Cn1cc2c3c(c(C(N)=O)[nH]c3c1=O)CN(c1ccc(F)cc1F)c1ccc(CS(C)(=O)=O)cc1-2 [Example 209, 4-(2,4-difluorophenyl)-10-methyl-7-((methylsulfonyl)methyl)-11-oxo-3,4,10,11-tetrahydro-1H-1,4,10-triazadibenzo[cd,f]azulene-2-carboxamide]
0.99 | 0.71 | 5.43 | CCNC(=O)c1[nH]c2c(=O)n(C)cc3c2c1CN(c1ccc(C#N)cc1)c1ccc(CS(C)(=O)=O)cc1-3 [Example 203, 4-(4-cyanophenyl)-N-ethyl-10-methyl-7-((methylsulfonyl)methyl)-11-oxo-3,4,10,11-tetrahydro-1H-1,4,10-triazadibenzo[cd,f]azulene-2-carboxamide]
0.85 | 3.2 | 27.8 | Cn1cc2c3c(c(C#N)[nH]c3c1=O)CN(c1ccc(Cl)cc1)c1ccccc1-2 [Example 201, 4-(4-chlorophenyl)-10-methyl-11-oxo-3,4,10,11-tetrahydro-1H-1,4,10-triazadibenzo[cd,f]azulene-2-carbonitrile]
